Experimental data published in ChEMBL document CHEMBL3808372, “Identification of quinones as novel PIM1 kinase inhibitors” (Bioorg Med Chem Lett, 2016).

Tests used:
[1] = molecular target: Serine/threonine-protein kinase pim-1 (Homo sapiens, UniProt P11309); experiment: Inhibition of recombinant human Pim1
[2] = Cytotoxicity against human DU145 cells assessed as cell growth inhibition after 72 hrs by Alamar blue assay; assay type: functional, cell-based; details: DU-145, 72 h

Sequence of Serine/threonine-protein kinase pim-1 (P11309 whole entry): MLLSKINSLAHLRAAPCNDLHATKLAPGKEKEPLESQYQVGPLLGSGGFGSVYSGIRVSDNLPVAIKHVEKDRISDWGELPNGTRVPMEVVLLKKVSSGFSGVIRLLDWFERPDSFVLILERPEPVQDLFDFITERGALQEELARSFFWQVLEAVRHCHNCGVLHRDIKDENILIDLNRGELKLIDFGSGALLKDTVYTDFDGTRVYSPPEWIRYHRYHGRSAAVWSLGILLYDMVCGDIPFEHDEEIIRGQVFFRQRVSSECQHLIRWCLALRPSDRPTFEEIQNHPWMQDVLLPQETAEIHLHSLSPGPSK

| IC50 [1] | Structure (SMILES) | IC50 [2] |
| --- | --- | --- |
| 3.5 µM | CC(C)(C)OC1CC(O)CC2C(=O)c3c(O)ccc(O)c3C(=O)C12 (stereo unspecified) | 3.21 µM |
| 7.4 µM | O=C1C(CO)=C(CO)C(=O)c2c(O)ccc(O)c21 | – |
| 23.8 µM | CC(C)(C)OC1CC(=O)CC2C(=O)c3cccc(O)c3C(=O)C12 (stereo unspecified) | – |
| 27 µM | O=C1C=C(CBr)C(=O)c2c(O)ccc(O)c21 | – |
| 3.6 µM | CC(C)C(C)OC1CC(=O)CC2C(=O)c3c(O)ccc(O)c3C(=O)C12 (stereo unspecified) | 4.06 µM |
| 11.6 µM | COc1cccc2c1C(=O)c1c(O)ccc(O)c1C2=O | – |

Further lines, the molecule ahead of its results:

| Structure (SMILES) | IC50 [1] | IC50 [2] |
| --- | --- | --- |
| COc1c(O)c(O)c2c(c1O)C(=O)c1cc(C)cc(O)c1C2=O | 21.4 µM | 3.93 µM |
| Cc1cc(O)c2c(c1)C(=O)C=CC2=O [RAMENTACEONE] | 28 µM | – |
| O=Cc1cc(O)c2c(c1O)C(=O)C=CC2=O | 28 µM | – |
| CC(=O)Oc1ccc(O)c2c1C(=O)C=CC2=O | 3 µM | – |
| Cc1cc(O)c2c(c1)C(=O)c1cc(O)cc(O)c1C2=O [EMODIN] | 2.5 µM | 2.02 µM |
| Oc1ccc(O)c2c(O)c3c(O)ccc(O)c3c(O)c12 | 57.1 µM | – |
